In patent US6737418B2, “Aryl substituted pyrazoles, imidazoles, oxazoles, thiazoles and pyrroles, and the use thereof” (Euro-Celtique S.A., priority 1999, dated 2004):
Counter-ions that a name gives are not always drawn. Each block holds one compound with its values, some of them ahead of it.

Assays:
[1] = biological target: T1, hSkM1 isoform of Na+ channels (Homo sapiens, UniProt P35499); assay: Electrophysiological Assay 1: whole-cell patch-clamp of Na+ currents in HEK-293 cells expressing hSkM1; format: cell-based; details: for Ki: HEK-293 cells stably expressing hSkM1, concentration that produces half maximal inhibition
T1 construct: expressed in transfected cells
Method: Cell preparation: HEK-293 cells stably expressing the hSkM1 isoform of Na^+ channels (generous gift from Dr. A. L. George, Vanderbilt University Medical School) were cultured using standard techniques, as described previously (Verdoorn, T. A, et al., Neuron 4:919-928 (1990)). For electrophysiology, cells were plated onto 35 mm Petri dishes (pre-coated with poly-D-lysine) at a density of 1:40 on the day of re-seeding from confluent cultures. Our experience has been that cells are suitable for recordings for 2-3 days after plating.
Patch-clamp recordings of voltage-sensitive Na^+ currents: Whole-cell voltage-clamp recordings were made using conventional patch-clamp techniques (Hamill et al., Pfluegers Arch. 391:85-100 (1981)) with an Axopatch 200A amplifier (Axon Instruments, Foster City, Calif.). […] The recording chamber was continuously superfused with the external solution (150 mM NaCl, 5.4 mM KCl, 1.8 mM CaCl2, 1 mM MgCl2, 10 mM HEPES, 10 mM glucose, pH 7.4 (NaOH)) at a speed of about 1 mL/min. Recording pipettes were pulled from thick-walled capillaries (WPI, Sarasota, Fla.) and fire-polished. The pipette resistances ranged from 1 to 3 MΩ when the pipettes were filled with internal solution containing (in mM): 110 CsF, 10 NaCl, 5 MgCl2, 11 EGTA, 10 HEPES, pH adjusted to 7.4 with CsOH. Osmolality was set with a difference of 15-20 mmol/kg between external and internal solutions (lower inside the cell). Drugs and intervening wash-outs were applied through a linear array of flow pipes (Drummond Microcaps, 2 μL, 64-mm length). Compounds are dissolved in dimethylsulfoxide (DMSO) to make a 30 mM stock solution, which was subsequently diluted into the external solution to give final concentrations of 0.1-100 μM. At the highest (1%) concentration, DMSO inhibited the size of Na^+ current only slightly. Currents were recorded at room temperature (22-25° C.), filtered at 5 kHz with an active 8-pole Bessel filter (Frequency Devices, Haverhill, Mass.), digitized at 10-50 μs intervals, and stored using Digidata 1200 analog/digital interface with Pclamp6/Clampex software (Axon Instruments). Series resistance was cancelled typically by ˜75% when necessary. The inhibitory potency of drugs was assessed by measuring reductions in the peak amplitude of Na^+ currents induced by increasing concentrations of compounds tested. Na^+ currents were elicited by stepping membrane voltage from holding potentials over the range −100 mV to −50 mV, to a pulse potential of −10 mV. The test pulse duration was 5-10 msec, repeated at a frequency≦1 Hz. Concentration-inhibition curves were fitted with equation 1:
I/Icontrol=1/(1+([compound]/IC50)) Eq. 1
where Icontrol is the maximal Na^+ current in the absence of antagonist, [compound] is the drug concentration, and IC50 is the concentration of compound that produces half maximal inhibition.
The apparent antagonist dissociation constant (Kd) of this compound for inactivated sodium channels is ˜8 nM.
The Ki (the concentration of a compound that produces half maximal inhibition) value for 3-[4-(4-fluorophenoxy)phenyl]-1H-pyrazole-1-carboxamide and other tested compounds are presented in Table 2.

[2] = biological target: rBIIA isoform of Na+ channels (Rattus norvegicus, UniProt P04775); assay: Electrophysiological Assay 2: whole-cell patch-clamp of Na+ currents in HEK-293 cells expressing rBIIA; format: cell-based; details: for Ki: HEK-293 cells stably expressing rBIIA, concentration that produces half maximal inhibition
Method: Cell preparation: HEK-293 (NaIIA-B2) cell line stably expressing the rBIIA isoform of Na^+ channels was established in-house. The cells were cultured using standard techniques, as described previously (Verdoorn, T. A, et al., Neuron 4:919-928 (1990)). For electrophysiology, cells were plated onto poly-D-lysine pre-coated Cellware 35 mm Petri dishes (BIOCOAT, Becton Dickinson) at a density of ˜10^4 cells/dish on the day of re-seeding from confluent cultures. Our experience has been that cells are suitable for recordings for 2-3 days after plating.
Patch-clamp recordings of voltage-sensitive Na^+ currents. Whole-cell voltage-clamp recordings were made using conventional patch-clamp techniques (Hamill et al., Pfluegers Arch. 391:85-100 (1981)) with an Axopatch 200A amplifier (Axon Instruments, Foster City, Calif.). The recording chamber was continuously superfused with the external solution (150 mM NaCl, 5.4 mM KCl, 1.8 mM CaCl2, 1 mM MgCl2, 10 mM HEPES, 10 mM glucose, pH7.4 adjusted with NaOH, osmolality ˜320 mmol/kg) at a speed of about 1 mL/min. Recording pipettes were pulled from the thick-walled capillaries (WPI, Sarasota, Fla.) and fire-polished. The pipette resistances ranged from 1 to 3 MΩ when the pipettes were filled with internal solution containing (in mM): 130 CsF, 20 NaCl, 2 MgCl2, 10 EGTA, 10 HEPES, pH adjusted to 7.4 with CsOH, osmolality ˜310 mmol/kg. Drugs and intervening wash-outs were applied through a linear array of flow pipes (Drummond Microcaps, 2 μL, 64-mm length). Compounds are dissolved in dimethylsulfoxide (DMSO) to make a 30 mM stock solution, which was subsequently diluted into the external solution to give final concentrations of 0.1-100 μM. At the highest (1%) concentration, DMSO inhibited the size of Na^+ current only slightly. Currents were recorded at room temperature (22-25° C.), filtered at 3 kHz with an active 8-pole Bessel filter (Frequency Devices, Haverhill, Mass.), digitized at 10-50 μs intervals, and stored using Digidata 1200 analog/digital interface with Pclamp6/Clampex software (Axon Instruments). Series resistance was cancelled typically by ˜75% when necessary.
The following voltage pulse protocols were used to assess the potency and kinetics of inhibition of the Na^+ channels by the compounds (FIG. 1). [drawing 33]
FIG. 1. Voltage pulse protocols. A. IV-curves. C. Steady-state inactivation. B. Repriming kinetics. D. Time course of binding.
Current-voltage relationship (IV-curve), protocol A, was used to report the voltage at which the maximal inward Na^+ current is achieved. This voltage was used throughout the experiment as testing voltage, Vt. The steady-state inactivation (or, availability) curve, protocol C, was used to get the voltage at which almost complete (≧95%) inactivation of Na^+ channels occurs; it served as voltage for conditioning prepulse, Vc, throughout the experiment. Protocol B reports how fast the channels recover from inactivation at hyperpolarized voltages. This permitted us to set up the duration of the hyperpolarization gap which is used in measurement of the kinetics of binding of compounds to inactivated Na^+ channels (protocol D). Channel repriming under control conditions was fast (≧90% recovery during first 5-10 ms). If a drug substantially retards the repriming process then it becomes possible (protocol D) to accurately measure the kinetics of binding of the inhibitor to inactivated channels as well as the steady-state affinity (k+ and Ki). To estimate k+ values the reduction in peak currents in successive trials with varying pre-pulse duration was plotted as a function of pre-pulse duration and the time constant (τ) measured by mono-exponential fit. A plot of 1/τ as a function of antagonist concentration then allowed calculating of the macroscopic binding rates of the antagonists. To determine Ki values the partial inhibition curves measured by fractional responses in steady-state were fitted with the logistic equation: […]

[3] = tested on: maximal electroshock-induced seizures (MES); assay: Maximum electroshock seizure test (MES), oral administration to mice; format: in vivo; details: Mus musculus, po, 30 minutes before the test, dose protecting 50% of animals
Description: The compounds of the present invention may be tested for in vivo anticonvulsant activity after i.v., p.o. or i.p. injection using a number of anticonvulsant tests in mice, including the maximum electroshock seizure test (MES). Maximum electroshock seizures were induced in male NSA mice weighing between 15-20 g and male Sprague-Dawley rats weighing between 200-225 g by application of current (50 mA, 60 pulses/sec, 0.8 msec pulse width, 1 sec duration, D.C., mice; 99 mA, 125 pulses/sec, 0.8 msec pulse width, 2 sec duration, D.C., rats) using a Ugo Basile ECT device (Model 7801). Mice were restrained by gripping the loose skin on their dorsal surface and saline-coated corneal electrodes were held lightly against the two corneae. Rats were allowed free movement on the bench top and ear-clip electrodes were used. […] A tonic seizure was defined as a hindlimb extension in excess of 90 degrees from the plane of the body. Results were treated in a quantal manner.
The ability of 3-[4-(2,4-difluorophenoxy)phenyl]-1H-pyrazole-1-carboxamide to block maximal electroshock-induced seizures (MES) was determined as described earlier.
3-[4-(2,4-Difluorophenoxy)phenyl]-1H-pyrazole-1-carboxamide was administered p.o. to mice 30 minutes before the test procedure.
The following compounds in Table 1 were tested in MES as described for 3-[4-(2,4-difluorophenoxy)phenyl]-1H-pyrazole-1-carboxamide: […]

T1 sequence (P35499 whole entry, canonical isoform): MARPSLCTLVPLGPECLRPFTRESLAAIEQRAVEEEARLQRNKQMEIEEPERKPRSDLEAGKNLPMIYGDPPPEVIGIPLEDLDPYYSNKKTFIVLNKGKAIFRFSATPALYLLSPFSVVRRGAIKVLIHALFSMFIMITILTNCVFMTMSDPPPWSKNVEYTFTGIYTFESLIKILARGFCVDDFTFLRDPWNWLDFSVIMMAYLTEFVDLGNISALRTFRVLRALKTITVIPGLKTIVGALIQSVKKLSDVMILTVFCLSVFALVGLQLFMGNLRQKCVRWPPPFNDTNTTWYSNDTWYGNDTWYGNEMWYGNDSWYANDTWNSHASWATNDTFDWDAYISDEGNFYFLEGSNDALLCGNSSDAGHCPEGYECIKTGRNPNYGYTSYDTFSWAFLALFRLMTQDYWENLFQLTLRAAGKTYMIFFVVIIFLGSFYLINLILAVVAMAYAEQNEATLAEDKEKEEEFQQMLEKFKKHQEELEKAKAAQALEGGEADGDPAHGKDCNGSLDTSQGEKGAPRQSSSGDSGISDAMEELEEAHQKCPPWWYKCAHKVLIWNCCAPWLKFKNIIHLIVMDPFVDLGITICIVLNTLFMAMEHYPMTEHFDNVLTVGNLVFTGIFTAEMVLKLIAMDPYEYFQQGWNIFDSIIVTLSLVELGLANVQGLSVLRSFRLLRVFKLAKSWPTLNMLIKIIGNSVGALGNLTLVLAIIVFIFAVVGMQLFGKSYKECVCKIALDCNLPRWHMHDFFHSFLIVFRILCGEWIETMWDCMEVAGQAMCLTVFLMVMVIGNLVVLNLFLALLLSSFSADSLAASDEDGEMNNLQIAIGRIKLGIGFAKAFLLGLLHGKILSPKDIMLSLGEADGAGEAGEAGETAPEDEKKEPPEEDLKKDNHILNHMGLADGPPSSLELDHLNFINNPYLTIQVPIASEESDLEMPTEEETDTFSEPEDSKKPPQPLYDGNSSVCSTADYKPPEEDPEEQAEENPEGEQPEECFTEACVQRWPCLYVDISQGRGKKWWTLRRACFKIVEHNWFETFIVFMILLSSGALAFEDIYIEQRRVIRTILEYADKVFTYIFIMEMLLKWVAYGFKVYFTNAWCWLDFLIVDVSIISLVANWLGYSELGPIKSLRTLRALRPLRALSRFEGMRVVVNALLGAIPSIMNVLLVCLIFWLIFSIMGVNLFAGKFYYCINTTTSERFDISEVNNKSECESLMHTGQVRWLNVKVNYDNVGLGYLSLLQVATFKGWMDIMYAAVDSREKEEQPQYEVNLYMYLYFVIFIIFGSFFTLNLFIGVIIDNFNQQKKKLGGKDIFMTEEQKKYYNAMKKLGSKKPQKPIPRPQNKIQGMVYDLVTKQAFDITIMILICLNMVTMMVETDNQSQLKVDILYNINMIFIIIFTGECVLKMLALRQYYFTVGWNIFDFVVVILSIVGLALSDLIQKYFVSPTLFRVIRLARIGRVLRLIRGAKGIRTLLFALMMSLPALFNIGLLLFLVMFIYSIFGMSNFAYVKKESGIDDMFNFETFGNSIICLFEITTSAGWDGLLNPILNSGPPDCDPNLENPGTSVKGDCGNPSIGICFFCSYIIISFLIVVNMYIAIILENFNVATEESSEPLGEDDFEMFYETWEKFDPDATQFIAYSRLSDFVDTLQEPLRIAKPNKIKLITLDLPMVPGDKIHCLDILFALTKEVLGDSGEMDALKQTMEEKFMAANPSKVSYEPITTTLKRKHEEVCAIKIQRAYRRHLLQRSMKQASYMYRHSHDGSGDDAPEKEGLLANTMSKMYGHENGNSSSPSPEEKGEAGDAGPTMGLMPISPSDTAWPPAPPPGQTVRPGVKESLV

- melting point: 192 to 195 °C
Compound: Fc1ccc(Oc2ccc(-c3c[nH]cn3)cc2)c(F)c1 (as salt: hydrochloride) [4-[4-(2,4-Difluorophenoxy)phenyl]-1H-imidazole]

- melting point: 131 to 132 °C
Compound: NC(=O)n1ccc(-c2ccc(Oc3ccc(C(F)(F)F)cc3)cc2)n1 [3-[4-(4-Trifluoromethylphenoxy)phenyl]-1H-pyrazole-1-carboxamide]
- ED50 [3]: 3.9 mg/kg

- Ki [1]: 3 nM
- melting point: 150 to 151 °C
Compound: NC(=O)n1ccc(-c2ccc(Oc3ccc(Cl)cc3F)cc2)n1 [3-[4-(4-Chloro-2-fluorophenoxy)phenyl]-1H-pyrazole-1-carhoxamide]
- ED50 [3]: 3.1 mg/kg

- melting point: 230 to 232 °C
Compound: Cl.FC(F)(F)c1ccc(Oc2ccc(-c3c[nH]cn3)cc2)cc1 [4-(4-(4-Trifluoromethylphenoxy)phenyl]-1H-imidazole, hydrochloride salt]
- ED50 [3]: 7.7 mg/kg

- Ki [1]: 11 nM
Compound: NC(=O)n1ccc(-c2ccc(Oc3ccc([N+](=O)[O-])cc3)cc2)n1 [3-[4-(4-Nitrophenoxy)phenyl]-1H-pyrazole-1-carboxamide]
- ED50 [3]: 2 mg/kg

- Ki [1]: 10 nM
Compound: NC(=O)n1ccc(-c2ccc(Oc3ccc(F)cc3F)cc2)n1 [3-[4-(2,4-Difluorophenoxy)phenyl]-1H-pyrazole-1-carboxamide]
- ED50 [3]: 3.5 mg/kg

- melting point: 122 to 124 °C
Compound: O=C(Cn1nccc1-c1ccc(Oc2ccc(F)cc2)cc1)N1CCOCC1 [1-Morpholin-4-yl-2-{5-[4-(4-fluorophenoxy)phenyl]-pyrazol-1-yl}-ethanone]
- ED50 [3]: 4.4 mg/kg

- Ki [1]: 15 nM
Compound: NC(=O)n1ccc(-c2ccc(Oc3ccccc3)cc2)n1 [3-(4-phenoxyphenyl)-1H-pyrazole-1-carboxamide]

- Ki [1]: 8 nM
- inhibition of voltage-gated sodium currents ([1]; HEK-293 cells stably expressing hSkM1 sodium channels): dose-dependent inhibition
- Kd ([1]; HEK-293 cells stably expressing hSkM1 sodium channels, read-out: apparent antagonist dissociation constant (Kd) for inactivated sodium channels): ~8 nM
- potency towards Na+ channels in their resting states ([1]; hSkM1, blocking effect highly sensitive to the holding voltage): weak potency
Compound: NC(=O)n1ccc(-c2ccc(Oc3ccc(F)cc3)cc2)n1 [3-[4-(4-Fluorophenoxy)phenyl]-1H-pyrazole-1-carboxamide]
- ED50 [3]: 7 mg/kg

- Ki [2]: 1030 nM
- melting point: 144 to 148 °C
Compound: Fc1ccc(Oc2ccc(-c3c[nH]cn3)cc2)c(F)c1 [4-[4-(2,4-Difluorophenoxy)phenyl]-1H-imidazole]

- Ki [1]: 20 nM
Compound: NC(=O)c1nc(-c2ccc(Oc3ccc(F)cc3)c(F)c2)cs1 [4-[4-(4-Fluorophenoxy)-3-fluorophenyl]-thiazole-2-carboxamide]

The remaining lines, values behind:

Compound: 1-[3-[4-(4-Nitrophenoxy)phenyl]-1H-pyrazolyl]ethanone
- Ki [1]: 9 nM

Compound: Fc1ccc(Oc2ccc(-c3ncc[nH]3)cc2)cc1 [2-[4-(4-Fluorophenoxy)phenyl]-1H-imidazole]
- Ki [2]: 1100 nM

Compound: O=[N+]([O-])c1ccc(Oc2ccc(-c3cc[nH]n3)cc2)cc1 [5-[4-(4-nitrophenoxy)phenyl]-1H-pyrazole, 3-[4-(4-nitrophenoxy)phenyl]-1H-pyrazole]
- Ki [1]: 110 nM

Compound: NC(=O)Cn1nccc1-c1ccc(Oc2ccc(F)cc2)cc1 [2-{5-[4-(4-Fluorophenoxy)phenyl]-pyrazol-1-yl}-acetamide]
- ED50 [3]: 2.6 mg/kg
- Ki [2]: 1560 nM

Compound: Fc1ccc(Oc2ccc(-c3ccn(-c4ncccn4)n3)cc2)cc1 [2-{3-[4-(4-Fluorophenoxy)phenyl]-pyrazol-1-yl}-pyrimidine]
- ED50 [3]: 4.7 mg/kg
- Ki [2]: 420 nM

Compound: Cl.Fc1ccc(Oc2ccc(-c3c[nH]cn3)cc2F)cc1 [4-[4-(4-Fluorophenoxy)-3-fluorophenyl]-1H-imidazole, hydrochloride salt]
- Ki [2]: 250 nM
- inhibition of voltage-gated sodium currents ([2]; HEK-293 cells stably expressing the rBIIA isoform of Na+ channels): dose-dependent inhibition
- Kd ([2]; HEK-293 cells stably expressing the rBIIA isoform of Na+ channels, read-out: apparent antagonist dissociation constant (Kd) for inactivated sodium channels): 250 nM
- potency towards Na+ channels in their resting states ([2]; rBIIA, blocking effect highly sensitive to the holding voltage): weak potency

Compound: CSc1cc(-c2ccc(Oc3ccccc3)cc2)nn1C(N)=O [5-Methylthio-3-(4-phenoxyphenyl)-1H-pyrazole-1-carboxamide]
- Ki [1]: 80 nM
- melting point: 142 to 144 °C

Compound: NC(=O)c1coc(-c2ccc(Oc3ccc(F)cc3)cc2)n1 [2-[4-(4-Fluorophenoxy)phenyl]oxazole-4-carboxamide]
- Ki [2]: 1310 nM
